Laboratory results as given in patent US5322846A, “4-methylthiazole derivatives, their methods of preparation and the pharmaceutical compositions in which they are present” (Institut de Recherches Chimiques et Biologiques Appliquees …, priority 1990, dated 1994).
Where a name gives a salt, the structure may show the parent alone. Read-outs that look alike come from different tables or passages of the source.

Key:
[1] = Acute toxicity in mice (oral, LD50); details: mouse, in vivo, male mice, single dose, 14-day observation
Experimental: The products were administered orally in a single dose to male mice with an average weight of 22 g. The mortality was recorded after a 14-day observation period.
The results are expressed in the form of the 50% lethal dose (LD50), i.e. the theoretical dose in mg.kg^-1, administered orally, which causes the death of 50% of the animals.
The majority of the molecules have an LD50 of more than 1 g.kg^-1. These are therefore products with a low toxicity after a single administration.

[2] = target: T1, postsynaptic alpha-adrenergic receptors (Rattus norvegicus, UniProt P43140); assay: Alpha-blocking activity towards norepinephrine on isolated rat vas deferens; assay type: biochemical; details: -log of concentration requiring doubled norepinephrine, read-out: pA2 (converted)
T1 construct: causes contraction of the isolated vas deferens; from tissue; host or cells: isolated rat vas deferens
T1 sequence (P43140 1-466): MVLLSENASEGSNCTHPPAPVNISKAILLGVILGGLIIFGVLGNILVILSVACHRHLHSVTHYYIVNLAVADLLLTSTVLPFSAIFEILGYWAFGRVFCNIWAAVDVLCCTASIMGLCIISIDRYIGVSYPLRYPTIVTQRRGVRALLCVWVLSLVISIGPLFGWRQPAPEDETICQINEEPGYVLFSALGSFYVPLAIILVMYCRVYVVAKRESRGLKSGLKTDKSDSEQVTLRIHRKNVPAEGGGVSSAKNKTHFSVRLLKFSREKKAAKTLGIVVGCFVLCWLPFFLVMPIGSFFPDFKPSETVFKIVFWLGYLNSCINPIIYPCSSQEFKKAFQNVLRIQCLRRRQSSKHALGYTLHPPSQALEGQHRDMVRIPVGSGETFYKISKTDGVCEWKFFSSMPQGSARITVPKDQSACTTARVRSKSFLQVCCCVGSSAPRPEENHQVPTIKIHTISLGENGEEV
Experimental: Stimulation of the postsynaptic alpha-adrenergic receptors by norepinephrine causes contraction of the isolated vas deferens.
The concentration of product in whose presence the norepinephrine concentration must be doubled in order to obtain the same effect as in the absence of said product is determined. The logarithm of this concentration, with the opposite sign, constitutes the pA2 of the products.
Their alpha-blocking activity is high since it appears for low concentrations of between 10^-6 M and 10^-8 M.

[3] = test system: lethal effect of norepinephrine; assay: Adrenolytic activity in vivo on the lethal effect of norepinephrine in rats; details: for ED50: Rattus norvegicus, wake male rats, norepinephrine 0.4 mg.kg^-1 intravenous, prior administration of product, read-out: ED50 (dose which protects 50% of the animals); for adrenolytic activity in the whole animals: rats, in words
Experimental: The intravenous injection of norepinephrine (0.4 mg.kg^-1) into wake male rats causes the death of 100% of the animals. The prior administration of a substance which has an alpha-blocking property makes it possible to reduce this toxicity.
The results are expressed in the form of the 50% effective dose (ED50), i.e. the dose in mg.kg^-1 which protects 50% of the animals (Table 5).

[4] = test system: hypertension induced by norepinephrine; assay: Inhibitory activity towards hypertension induced by norepinephrine in anesthetized rabbits; assay type: in vivo; details: anesthetized male rabbits, intravenous; for ED50: Oryctolagus cuniculus, read-out: ID50 (50% inhibition of norepinephrine-induced hypertension)
Experimental: The blood pressure is measured by catheterization of the left carotid artery of anesthetized male rabbits. An increase in blood pressure is induced by an intravenous injection of norepinephrine. This hypertension can be inhibited by the prior administration of molecules with an alpha-blocking potential.
These are presented in Table 6 in the form of the 50% inhibitory dose (ID50), which is defined as the dose of product which, when administered intravenously, causes a 50% inhibition of the hypertension induced by norepinephrine.

[5] = test system: femoral blood pressure and heart rate; assay: Cardiovascular activity (blood pressure and heart rate) in anesthetized rats; assay type: in vivo; details: for Heart rate, maximum effect in % / ED25: I.V., pentobarbital-anesthetized rats; for ED25: Rattus norvegicus, iv, 25% drop in average blood pressure
Experimental: The cardiovascular effects of three products were studied in rats anesthetized with pentobarbital and placed under artificial respiration. The femoral blood pressure and the heart rate are recorded by means of a GOULD-BRUSH apparatus.
The products are administered intravenously in increasing doses. Three animals are tested per product. The dose which causes a 25% drop in average blood pressure (ED25) was evaluated for each product and compared with nicardipine 1 to 5 min after administration.
The products have dose-dependent hypotensive effects but have little or no effect on the heart rate (Table 7). The most hypotensive in terms of the effective dose is B 1395 (ED25 of 0.004 mg.kg^-1).

[6] = 1 min, 1 minute, read-out: Blood pressure: Hypotension, ED25 at 1 minute
[7] = 5 min, 5 minutes, read-out: Blood pressure: Hypotension, ED25 at 5 minutes

| Compound | LD50 at 336 h [1] | Kb [2] | ED50 [3] | adrenolytic activity in the whole animals [3] | ED50 [4] | Heart rate, maximum effect in % [5] | ED25 [5, 6] | ED25 [5, 7] | active dose [4] | effectiveness against norepinephrine-induced hypertension ([4]; in words) | hypotensive potential compared with nicardipine ([5]; ED25 values 5 min after I.V. injection, in words) |
| --- | --- | --- | --- | --- | --- | --- | --- | --- | --- | --- | --- |
| CCOc1ccccc1N1CCN(CC(O)COc2scnc2C)CC1 (stereo not shown) [B 1392, 3-(4-o-ethoxyphenylpiperazin-1-yl)-1-(4-methylthiazolyl-5-oxy)propan-2-ol] | 260 mg/kg | 13.2 nM | 0.3 mg/kg | very active | 2.6 mg/kg | -11.2% | 0.024 mg/kg | 0.048 mg/kg | – | – | – |
| CCCOc1ccccc1N1CCN(CC(O)COc2scnc2C)CC1 (stereo not shown) [B 1395, 3-(4-o-propoxyphenylpiperazin-1-yl)-1-(4-methylthiazolyl-5-oxy)propan-2-olmonohydrochloride] | 515 mg/kg | 20 nM | 0.2 mg/kg | very active | 0.2 mg/kg | -4% | 0.004 mg/kg | 0.1 mg/kg | less than 1 mg.kg^-1 | particularly effective | on a level with that of nicardipine |
